Marks after values point to notes of the source that are not given here.
Experiment: log P by HPLC on reversed-phase column (C 18), acidic range
Format: physicochemical
Experimental: Temperature: 43° C. […] The log P values given in Table 3 were determined in accordance with EEC Directive 79/831 Annex V.A8 by HPLC (High Performance Liquid Chromatography) on a reversed-phase column (C 18). Temperature: 43° C. […] The log P values given in Tables 4 were determined in accordance with EEC Directive 79/831 Annex V.A8 by HPLC (High Performance Liquid Chromatography) on a reversed-phase column (C 18). Temperature: 43° C.

In the case of CCn1ncc(C(=O)c2ccc(C(F)(F)F)cc2Cn2nc(SC)n(C)c2=O)c1OCc1ccc(C#N)cc1 [ID-37], the logP is reported as “logP =3.06^a)”.

For CCn1ncc(C(=O)c2ccc(C(F)(F)F)cc2Cn2nc(SC)n(C)c2=O)c1OCc1ccc(F)cc1 [ID-38], the logP was “logP = 3.41^a)”.

With CCn1ncc(C(=O)c2ccc(C(F)(F)F)cc2Cn2nc(SC)n(C)c2=O)c1OCc1ccc(Cl)cc1 [ID-39] the logP was “logP = 3.78^a)”.

In the case of CCn1ncc(C(=O)c2ccc(C(F)(F)F)cc2Cn2nc(SC)n(C)c2=O)c1OCc1ccc(Cl)c(Cl)c1 [ID-40], the logP is reported as “logP = 4.17^a)”.

With CCn1ncc(C(=O)c2ccc(C(F)(F)F)cc2Cn2nc(SC)n(C)c2=O)c1OCc1cccc(Cl)c1 [ID-41] the logP was “logP = 3.76^a)”.

With CCn1ncc(C(=O)c2ccc(C(F)(F)F)cc2Cn2nc(SC)n(C)c2=O)c1OCc1ccc([N+](=O)[O-])cc1 [ID-42] the logP was “logP = 3.26^a)”.

For CCn1ncc(C(=O)c2ccc(C(F)(F)F)cc2Cn2nc(SC)n(C)c2=O)c1OCc1ccc(C(F)(F)F)cc1 [ID-43], the logP was “logP = 3.89^a)”.

For CCn1ncc(C(=O)c2ccc(C(F)(F)F)cc2Cn2nc(SC)n(C)c2=O)c1OCc1cccc(C(F)(F)F)c1 [ID-44], the logP was “logP = 3.85^a)”.

With CCn1ncc(C(=O)c2ccc(C(F)(F)F)cc2Cn2nc(SC)n(C)c2=O)c1OCC(=O)c1ccccc1 [ID-45] the logP was “logP = 3.19^a)”.

In the case of CCn1ncc(C(=O)c2ccc(C(F)(F)F)cc2Cn2nc(SC)n(C)c2=O)c1OCC(=O)c1ccc(C)cc1 [ID-46], the logP is reported as “logP = 3.47^a)”.

With CCn1ncc(C(=O)c2ccc(C(F)(F)F)cc2Cn2nc(SC)n(C)c2=O)c1OCC(=O)c1ccc(Cl)cc1 [ID-47] the logP was “logP = 3.64^a)”.

For CN1CCN(Cc2c(Cl)ccc(C(=O)c3cnn(C)c3O)c2Cl)C1=O [ID-50], the logP was “logP = 1.41^a)”.

In the case of Cc1nn(C)c(O)c1C(=O)c1ccc(Cl)c(CN2CCN(C)C2=O)c1Cl [ID-51], the logP is reported as “logP = 1.38^a)”.

For CCn1nc(C)c(C(=O)c2ccc(Cl)c(CN3CCN(C)C3=O)c2Cl)c1O [ID-52], the logP was “logP = 1.56^a)”.

With Cc1nn(C(C)(C)C)c(O)c1C(=O)c1ccc(Cl)c(CN2CCN(C)C2=O)c1Cl [ID-53] the logP was “logP = 2.79^a)”.

In the case of CCN1CCN(Cc2c(Cl)ccc(C(=O)c3cnn(C)c3O)c2Cl)C1=O [ID-54], the logP is reported as “logP = 1.62^a)”.

For CCN1CCN(Cc2c(Cl)ccc(C(=O)c3c(C)nn(C)c3O)c2Cl)C1=O [ID-55], the logP was “logP = 1.57^a)”.

For CCN1CCN(Cc2c(Cl)ccc(C(=O)c3cnn(CC)c3O)c2Cl)C1=O [ID-56], the logP was “logP = 1.88^a)”.

With CCN1CCN(Cc2c(Cl)ccc(C(=O)c3c(C)nn(CC)c3O)c2Cl)C1=O [ID-57] the logP was “logP = 1.79^a)”.

In the case of CCN1CCN(Cc2c(Cl)ccc(C(=O)c3c(C)nn(C(C)(C)C)c3O)c2Cl)C1=O [ID-58], the logP is reported as “logP = 3.15^a)”.

For COC(=O)c1ccc(Cl)c(Cn2nc(SC)n(C)c2=O)c1Cl [IV-3], the logP was “logP = 2.27^a)”.

In the case of CCOc1nn(Cc2c(Cl)ccc(C(=O)OC)c2Cl)c(=O)n1C [IV-4], the logP is reported as “logP = 2.38^a)”.

For COC(=O)c1ccc(Cl)c(Cn2nc(C3CC3)n(C3CC3)c2=O)c1Cl [IV-5], the logP was “logP = 2.55^a)”.

In the case of COC(=O)c1ccc(Cl)c(Cn2nc(OC)n(C)c2=O)c1Cl [IV-6], the logP is reported as “logP = 2.04^a)”.

For COC(=O)c1ccc(Cl)c(Cn2nc(OC(C)C)n(C)c2=O)c1Cl [IV-7], the logP was “logP = 2.73^a)”.

For COC(=O)c1ccc(Cl)c(Cn2nc(OCC(F)(F)F)n(C)c2=O)c1Cl [IV-8], the logP was “logP = 2.72^a)”.

With COC(=O)c1ccc(Cl)c(Cn2nc(Br)n(C)c2=O)c1Cl [IV-9] the logP was “logP = 2.18^a)”.

For COC(=O)c1ccc(Cl)c(Cn2ncn(C)c2=O)c1Cl [IV-10], the logP was “logP = 1.55^a)”.

For COC(=O)c1ccc(Cl)c(Cn2nc(C3CC3)n(C)c2=O)c1Cl [IV-11], the logP was “logP = 2.16^a)”.

With COC(=O)c1ccc(Cl)c(Cn2nc(N(C)C)n(C)c2=O)c1Cl [IV-12] the logP was “logP = 2.11^a)”.

For COC(=O)c1ccc(Cl)c(Cn2nc(C)n(C)c2=O)c1Cl [IV-13], the logP was “logP = 1.65^a)”.

In the case of COC(=O)c1ccc(Cl)c(Cn2nc3n(c2=O)CCCC3)c1Cl [IV-14], the logP is reported as “logP = 1.86^a)”.

With COC(=O)c1ccc(Cl)c(Cn2nc(OC)n(C3CC3)c2=O)c1Cl [IV-15] the logP was “logP = 2.36^a)”.

With CCOc1nn(Cc2c(Cl)ccc(C(=O)OC)c2Cl)c(=O)n1C1CC1 [IV-16] the logP was “logP = 2.73^a)”.

For COC(=O)c1ccc(Cl)c(Cn2nc(OC(C)C)n(C3CC3)c2=O)c1Cl [IV-17], the logP was “logP = 3.08^a)”.

With COC(=O)c1ccc(Cl)c(Cn2nc(OCC(F)(F)F)n(C3CC3)c2=O)c1Cl [IV-18] the logP was “logP = 3.05^a)”.

In the case of COC(=O)c1ccc(Cl)c(Cn2nc(SC)n(C3CC3)c2=O)c1Cl [IV-19], the logP is reported as “logP = 2.70^a)”.

In the case of COC(=O)c1ccc(Cl)c(Cn2nc(C)n(C3CC3)c2=O)c1Cl [IV-20], the logP is reported as “logP = 1.97^a)”.

In the case of COC(=O)c1ccc(Cl)c(Cn2nc(N(C)C)n(C3CC3)c2=O)c1Cl [IV-21], the logP is reported as “logP = 2.42^a)”.

For CCOn1c(CC)nn(Cc2c(Cl)ccc(C(=O)OC)c2Cl)c1=O [IV-22], the logP was “logP = 2.58^a)”.

In the case of COC(=O)c1ccc(Cl)c(CN2CCN(C)C2=O)c1Cl [IV-23], the logP is reported as “logP = 1.98^a)”.

In the case of COC(=O)c1ccc(Cl)c(CN2CCCN(C)C2=O)c1Cl [IV-24], the logP is reported as “logP = 2.07^a)”.

With COC(=O)c1ccc(Cl)c(CN2C(=O)c3ccccc3S2(=O)=O)c1Cl [IV-25] the logP was “logP = 2.94^a)”.

In the case of CCOC(=O)c1ccc(S(C)(=O)=O)cc1CN1C(=O)CCC1=O [IV-33], the logP is reported as “logP = 1.53^a)”.

With CCOC(=O)c1ccc(Br)cc1Cn1nc(CC)n(OCC)c1=O [IV-34] the logP was “logP = 3.24^a)”.

With CCOC(=O)c1ccc(Br)cc1Cn1nc(C(F)(F)F)n(C)c1=O [IV-35] the logP was “logP = 3.40^a)”.

For CCOC(=O)c1ccc(F)c(Cn2nc(Br)n(C)c2=O)c1 [IV-36], the logP was “logP = 2.41^a)”.

For CCOC(=O)c1ccc(F)cc1Cn1nc(SC)n(C)c1=O [IV-37], the logP was “logP = 2.45^a)”.

For CCOC(=O)c1ccc(Br)c(Cn2nc(C)n(C)c2=O)c1 [IV-38], the logP was “logP = 2.06^a)”.

In the case of CCOC(=O)c1ccc(Br)c(Cn2nc(Br)n(C)c2=O)c1 [IV-39], the logP is reported as “logP = 2.64^a)”.

With CCOC(=O)c1ccc(Br)c(Cn2nc(C(F)(F)F)n(C)c2=O)c1 [IV-40] the logP was “logP = 3.23^a)”.

For CCOC(=O)c1ccc(Br)c(Cn2nc(C3CC3)n(C3CC3)c2=O)c1 [IV-41], the logP was “logP = 3.02^a)”.

With CCOC(=O)c1ccc(Cl)cc1Cn1nc(OCC)n(C2CC2)c1=O [IV-42] the logP was “logP = 3.23^a)”.

In the case of CCOC(=O)c1ccc(Cl)cc1Cn1nc(C(F)(F)F)n(C)c1=O [IV-43], the logP is reported as “logP = 3.31^a)”.

In the case of CCOC(=O)c1ccc(Cl)cc1Cn1nc(CC)n(OCC)c1=O [IV-44], the logP is reported as “logP = 3.14^a)”.

With CCOC(=O)c1ccc([N+](=O)[O-])cc1Cn1nc(OCC)n(C2CC2)c1=O [IV-45] the logP was “logP = 2.42^a)”.

For CCOC(=O)c1ccc([N+](=O)[O-])cc1Cn1nc(SC)n(C)c1=O [IV-46], the logP was “logP = 2.82^a)”.

For CCOC(=O)c1ccc(C(F)(F)F)cc1Cn1nc(OCC)n(C2CC2)c1=O [IV-47], the logP was “logP = 3.48^a)”.

For CCOC(=O)c1ccc(C(F)(F)F)cc1Cn1nc(CC)n(OCC)c1=O [IV-48], the logP was “logP = 3.38^a)”.

For CCOC(=O)c1ccc(C(F)(F)F)cc1Cn1nc(SC)n(C)c1=O [IV-49], the logP was “logP = 3.02^a)”.

For CCCOC(=O)c1ccc(C(F)(F)F)cc1Cn1nc(OCC)n(C2CC2)c1=O [IV-50], the logP was “logP = 3.91^a)”.

For CCOC(=O)c1ccc(Br)cc1Cn1nc(OCC)n(C)c1=O [IV-58], the logP was “logP = 2.95^a)”.

With CCOC(=O)c1ccc(Br)cc1CN1C(=O)CCC1=O [IV-60] the logP was “logP = 2.44^a)”.

For CCOC(=O)c1ccc(Br)cc1Cn1nc(OC(C)C)n(C)c1=O [IV-65], the logP was “logP = 3.34^a)”.

In the case of CCCOc1nn(Cc2cc(Br)ccc2C(=O)OCC)c(=O)n1C [IV-66], the logP is reported as “logP = 3.38^a)”.

With CCOC(=O)c1ccc(Br)cc1Cn1nc(OCC(F)(F)F)n(C)c1=O [IV-67] the logP was “logP = 3.31^a)”.

In the case of CCOC(=O)c1ccc(Br)cc1Cn1nc2n(c1=O)CCC2 [IV-68], the logP is reported as “logP = 2.16^a)”.

With CCOC(=O)c1ccc(Br)cc1Cn1nc2n(c1=O)CCCC2 [IV-69] the logP was “logP = 2.41^a)”.

In the case of CCOC(=O)c1ccc(C(F)(F)F)cc1Cn1nc(OC(C)C)n(C)c1=O [IV-70], the logP is reported as “logP = 3.51^a)”.

With CCCOc1nn(Cc2cc(C(F)(F)F)ccc2C(=O)OCC)c(=O)n1C [IV-71] the logP was “logP = 3.54^a)”.

With CCOC(=O)c1ccc(Br)cc1CN1CCOC1=O [IV-72] the logP was “logP = 2.36^a)”.

For CCOC(=O)c1ccc(Br)cc1Cn1nc(C)oc1=O [IV-73], the logP was “logP = 2.88^a)”.

In the case of CCOC(=O)c1ccc(C(F)(F)F)cc1Cn1cnn(C)c1=O [IV-74], the logP is reported as “logP = 2.68^a)”.

In the case of CCOC(=O)c1ccc(Br)cc1Cn1nc(Br)n(C)c1=O [IV-75], the logP is reported as “logP = 2.80^a)”.

With CCOC(=O)c1ccc(C(F)(F)F)cc1Cn1nc(COC)n(C2CC2)c1=O [IV-77] the logP was “logP = 2.88^a)”.

For CCOC(=O)c1ccc(C(F)(F)F)cc1Cn1nc(COC)n(C)c1=O [IV-78], the logP was “logP = 2.60^a)”.

In the case of CCOC(=O)c1ccc(C(F)(F)F)cc1Cn1nc(Br)n(C2CC2)c1=O [IV-79], the logP is reported as “logP = 3.35^a)”.

With CCOC(=O)c1ccc(Br)cc1Cn1nc(SC)n(C)c1=O [IV-80] the logP was “logP = 2.86^a)”.

In the case of CCOC(=O)c1ccc(Cl)cc1Cn1nc(SC)n(C)c1=O [IV-81], the logP is reported as “logP = 2.83^a)”.

In the case of CCOC(=O)c1ccc(Br)cc1Cn1nc(N(C)C)n(C)c1=O [IV-82], the logP is reported as “logP = 2.60^a)”.

In the case of CCOC(=O)c1ccc(C(F)(F)F)cc1Cn1nc(N(C)C)n(C)c1=O [IV-85], the logP is reported as “logP = 2.79^a)”.

In the case of CCOC(=O)c1ccc(C(F)(F)F)cc1Cn1nc(OCC(F)(F)F)n(C)c1=O [IV-93], the logP is reported as “logP = 3.45^a)”.

For CCOC(=O)c1ccc(F)cc1Cn1nc(N(C)C)n(C)c1=O [IV-94], the logP was “logP = 2.21^a)”.

For CCCOc1nn(Cc2cc(F)ccc2C(=O)OCC)c(=O)n1C [IV-95], the logP was “logP = 2.96^a)”.

In the case of CCOC(=O)c1ccc(F)cc1Cn1nc(COC)n(C)c1=O [IV-96], the logP is reported as “logP = 2.05^a)”.

Reference: US7279444B2, “Substituted benzoylpyrazoles” (Bayer CropScience GmbH, priority 1999, dated 2007)
